Data as given in PubChem BioAssay AID435002 (The Scripps Research Institute Molecular Screening Center, 2010).

tested on: HEK293 cells, ROS production inhibition counter-screen; experiment: HEK293 ROS counter-screen potency – cell-based, IC50, set 2, counter-screen for NOX1 inhibitor project, late-stage follow-up (AID 435002)

Compound	IC50 [µM]
COc1cc(-c2nc(-c3ccccc3)c(-c3ccccc3)[nH]2)ccc1O	1.81
FC(F)(F)c1ccc2c(c1)Nc1ccccc1S2	1
Cc1cc(Cl)ccc1NC(=S)NNC(=S)Nc1ccc(F)cc1	0.96
CN(C)c1ccc(NC(=O)Nc2ccc(OCc3ccccc3)cc2)cc1	2.37
